Patent publication US10066272B2, “Human homeobox gene ventx and macrophage terminal differentiation and activation, compositions and methods thereof” (priority 2011, dated 2018)

Legend:
Type in all cases: cell-based, human
[1] = tested on: cytokine mRNA expression in macrophages; test: Effects of VentX knockdown on cytokine mRNA expression in macrophages (real-time PCR); parameters: unit not given here; details: macrophages transfected with siRNA; classical activation by LPS plus IFN-γ
Description: Macrophages were generated through incubation of freshly isolated monocytes with 100 ng/mL M-CSF for 4 days. These macrophages were then transfected with siGFP or siVentX, respectively, and further cultured in RPMI 1640 medium for additional 3 days. Thereafter, cells were exposed to 1 μg/mL LPS plus 20 ng/mL γ-IFN for 6 hours. (A) Surface staining of CD40, CD80, CD86 and HLA-DR and intracellular staining of TNF-α and IL1-β were analyzed by flow cytometry. (B) Secreted TNF-α, IL1-β and IL12p70 from culture supernatants were determined with ELISA kits. (C) Reactive oxygen species (ROS) from siGFP or siVentX transfected macrophages were analyzed with fluorescence microscope (left) and flow cytometry (middle). […] (D) Nitrate level from siGFP and siVentX transfected macrophages. Data represent mean+SD of three different experiments. (E) Phagocytosis of siGFP and siVentX transfected macrophage. Red histogram represents transfection with siGFP; green histogram represents transfection with siVentX. Left panel: cells were incubated on ice; right panel: cells were incubated at 37° C. (F) Effects of VentX knockdown on mixed lymphocyte reaction. Irradiated macrophages that had been transfected with siGFP or siVentX were utilized to stimulate allogenic naïve CD4 T cells proliferation. The proliferation rates were represented by counts per minute (CPM). […] Statistically significant difference (p<0.05) was observed when 4×10^2 or 2×10^3 cells were added.
(Martinez, et al. 2008 Front Biosci 13:453-461; Mosser, et al. 2008 Nat Rev Immunol 8:958-969.) To investigate whether VentX is required for classical activation of macrophages, a loss-of-function approach by knockdown of VentX was used.
Human primary monocytes were transfected using the Human Monocyte Nucleofector Kit (Lonza) according to the manufacturer's instructions. Briefly, 5×10^6monocytes were resuspended into 100 μl nucleofector solution with 0.5 nmol of either VentX siRNA (forward: 5′-[…]-3′ (SEQ ID NO:4); reverse: 5′-[…]-3′ (SEQ ID NO:5)) or non-effective GFP siRNA (forward: 5′-[…]-3′ (SEQ ID NO:6); 5′-reverse: […]-3′ (SEQ ID NO:7)) before electroporation with nucleofector II Device (Lonza). Cells were then immediately removed from the device and incubated overnight with 1 ml pre-warmed Human Monocyte Nucleofector Medium containing 2 mM glutamine and 10% FBS. Cells were then resuspended into complete RPMI medium and treated with appropriate cytokines to induce differentiation into macrophages. Similarly, macrophages derived from monocytes were transfected with Human Macrophage Nucleofector Kit (Lonza) following the manufacturer's instructions.
Total RNA was isolated by the TRIzol reagent, and an equal amount of RNA was used for first-strand cDNA synthesis with SuperScript III First-Strand Synthesis System (Invitrogen) according to the manufacturer's protocol. To amplify VentX cDNA with conventional PCR, AccuPrime™ Taq DNA polymerase system (Invitrogen) was used following the manufacturer's instructions. PCR products were separated on 2% agarose gels and stained with ethidium bromide. GAPDH was used as an internal control. Quantitative measurement of VentX and cytokines cDNA were performed with SYBR Green on a LightCycler® (480 Real-Time PCR System; Roche). The primers used are listed in the Sequence Listing (SEQ ID NOs: 24-109).

[2] = tested on: cultured monocytes/macrophages; test: Phagocytosis assay with pHrodo S. aureus BioParticles
Description: (A) Left panel: Flow cytometry analysis of indicated surface markers in monocytes transfected with siGFP or siVentX, respectively; right panel: bar graphs show the mean+SD of at least three separate experiments. *p<0.05; **p<0.01. (B) Effects of VentX knockdown on macrophage viability. Monocytes were transfected with either siGFP or siVentX and subsequently exposed to 100 ng/mL M-CSF for 3 days. Cells were then harvested and stained with PI and Annexin V and analyzed by flow cytometry. (C) Effects of VentX knockdown on phagocytosis. Monocytes were transfected with siGFP or siVentX. Phagocytosis assays were carried out as described in materials and methods. […]
Macrophages were generated through incubation of freshly isolated monocytes with 100 ng/mL M-CSF for 4 days. […] (A) Surface staining of CD40, CD80, CD86 and HLA-DR and intracellular staining of TNF-α and IL1-β were analyzed by flow cytometry. (B) Secreted TNF-α, IL1-β and IL12p70 from culture supernatants were determined with ELISA kits. (C) Reactive oxygen species (ROS) from siGFP or siVentX transfected macrophages were analyzed with fluorescence microscope (left) and flow cytometry (middle). […]
Phagocytosis of cultured monocytes/macrophages or U937 cells were performed with pHrodo™ S. aureus BioParticles® conjugates from Invitrogen. […] After extensive washings, cellular phagocytosis of bioparticles was monitored by flow cytometry. […]

[3] = tested on: activated macrophages; test: Detection of reactive oxygen species (ROS) and nitric oxide (NO) in activated macrophages
Description: Macrophages were generated through incubation of freshly isolated monocytes with 100 ng/mL M-CSF for 4 days. These macrophages were then transfected with siGFP or siVentX, respectively, and further cultured in RPMI 1640 medium for additional 3 days. Thereafter, cells were exposed to 1 μg/mL LPS plus 20 ng/mL γ-IFN for 6 hours. (A) Surface staining of CD40, CD80, CD86 and HLA-DR and intracellular staining of TNF-α and IL1-β were analyzed by flow cytometry. (B) Secreted TNF-α, IL1-β and IL12p70 from culture supernatants were determined with ELISA kits. (C) Reactive oxygen species (ROS) from siGFP or siVentX transfected macrophages were analyzed with fluorescence microscope (left) and flow cytometry (middle). […] (D) Nitrate level from siGFP and siVentX transfected macrophages. Data represent mean+SD of three different experiments. (E) Phagocytosis of siGFP and siVentX transfected macrophage. […]
The ROS level in activated macrophages was detected with Image-iT® LIVE Green Reactive Oxygen Species Detection Kit (Invitrogen) basically following the manufacturer's instructions except that the results were analyzed by both fluorescence microscope and flow cytometry. The NO level was determined by Griess Reagent Kit for Nitrite Determination (Invitrogen) following the protocol provided by the manufacturer.

[4] = tested on: allogenic naive CD4+ T cells; test: Mixed lymphocyte reaction; details: irradiated transfected macrophages (FIG. 8F)
Description: Macrophages were generated through incubation of freshly isolated monocytes with 100 ng/mL M-CSF for 4 days. These macrophages were then transfected with siGFP or siVentX, respectively, and further cultured in RPMI 1640 medium for additional 3 days. Thereafter, cells were exposed to 1 μg/mL LPS plus 20 ng/mL γ-IFN for 6 hours. (A) Surface staining of CD40, CD80, CD86 and HLA-DR and intracellular staining of TNF-α and IL1-β were analyzed by flow cytometry. (B) Secreted TNF-α, IL1-β and IL12p70 from culture supernatants were determined with ELISA kits. (C) Reactive oxygen species (ROS) from siGFP or siVentX transfected macrophages were analyzed with fluorescence microscope (left) and flow cytometry (middle). […] (D) Nitrate level from siGFP and siVentX transfected macrophages. Data represent mean+SD of three different experiments. (E) Phagocytosis of siGFP and siVentX transfected macrophage. Red histogram represents transfection with siGFP; green histogram represents transfection with siVentX. Left panel: cells were incubated on ice; right panel: cells were incubated at 37° C. (F) Effects of VentX knockdown on mixed lymphocyte reaction. Irradiated macrophages that had been transfected with siGFP or siVentX were utilized to stimulate allogenic naïve CD4 T cells proliferation. The proliferation rates were represented by counts per minute (CPM). […]

Substance: siVentX: VentX siRNA, forward 5′-UUCAGAAUCGCCGCAUGAAACACAAACGG-3′ (SEQ ID NO:4), reverse SEQ ID NO:5 (antisense CCGUUUGUGUUUCAUGCGGCGAUUCUGAA; listed as RNA, chemistry not given here)
- IL1-β cytokine mRNA expression [1]: 21.93 ± 1.8
- IL6 cytokine mRNA expression [1]: 1.78 ± 0.14
- IL8 cytokine mRNA expression [1]: 172 ± 5.8
- IL12p35 cytokine mRNA expression [1]: 0.37 ± 0.14
- IL12p40 cytokine mRNA expression [1]: 0.61 ± 0.05
- M-SCSF cytokine mRNA expression [1]: 0.14 ± 0.01
- TNF-α cytokine mRNA expression [1]: 0.18 ± 0.01
- phagocytotic capability of transfected macrophages ([2]; macrophages (FIG. 8E)): much weaker
- phagocytotic activity of transfected monocytes ([2]; monocytes, in comparison with the control (FIG. 3C)): reduced phagocytotic activity
- reactive oxygen species produced ([3]; transfected macrophages (FIG. 8C)): significantly less
- nitric oxide produced ([3]; transfected macrophages (FIG. 8D)): significantly less
- stimulation of allogeneic T cells proliferation [4]: less potent
